Assay results published in the CheMixHub ionic liquid set.

Experiment: xn = mol fraction of the nth substance listed

CN(CCO)CCO + CCCC[n+]1ccn(C)c1.F[B-](F)(F)F + O
viscosity [mPa·s], 101 kPa
Settings | 293.15 K | 303.15 K | 313.15 K | 323.15 K | 333.15 K
x2 = 0.0987, x1 = 0.7994 | 86.7 | 48.2 | 28.8 | 18.4 | 12.32
x2 = 0.0989, x1 = 0.623 | 77.4 | 43.7 | 26.1 | 16.6 | 11.12
x2 = 0.0991, x1 = 0.4459 | 59.2 | 33.7 | 20.4 | 13.16 | 8.94
x2 = 0.0993, x1 = 0.2681 | 32.9 | 19.2 | 12.08 | 8.13 | 5.78
x2 = 0.0995, x1 = 0.0895 | 8.59 | 5.78 | 4.14 | 3.11 | 2.41
x2 = 0.1972, x1 = 0.7097 | 77.7 | 43.1 | 26 | 16.8 | 11.42
x2 = 0.1978, x1 = 0.5528 | 67.4 | 37.3 | 22.6 | 14.63 | 9.99
x2 = 0.1979, x1 = 0.3957 | 50.3 | 28.3 | 17.5 | 11.53 | 8.07
x2 = 0.1982, x1 = 0.2378 | 28.6 | 17 | 11.04 | 7.72 | 5.63
x2 = 0.1986, x1 = 0.0794 | 10.66 | 7.28 | 5.26 | 3.98 | 3.12
x2 = 0.2954, x1 = 0.6203 | 72.6 | 40.5 | 24.7 | 16.15 | 11.16
x2 = 0.2959, x1 = 0.4832 | 60.5 | 34.2 | 21.1 | 13.97 | 9.79
x2 = 0.2963, x1 = 0.3457 | 45 | 26.1 | 16.5 | 11.2 | 8.04
x2 = 0.2968, x1 = 0.2077 | 27.8 | 17.2 | 11.44 | 8.18 | 6.09
x2 = 0.2972, x1 = 0.0694 | 13.16 | 9.12 | 6.68 | 5.08 | 4
x2 = 0.3934, x1 = 0.531 | 68.7 | 39.1 | 24.3 | 16.14 | 11.32
x2 = 0.3939, x1 = 0.4136 | 56.5 | 32.9 | 20.8 | 14.05 | 10.02
x2 = 0.3944, x1 = 0.2958 | 43 | 25.9 | 16.8 | 11.65 | 8.49
x2 = 0.395, x1 = 0.1777 | 28.8 | 18.3 | 12.49 | 8.99 | 6.8
x2 = 0.3955, x1 = 0.0593 | 16.8 | 11.66 | 8.53 | 6.54 | 5.13
x2 = 0.4912, x1 = 0.442 | 66.5 | 38.9 | 24.6 | 16.7 | 11.88
x2 = 0.4917, x1 = 0.3442 | 57.5 | 34.4 | 21.8 | 14.94 | 10.7
x2 = 0.4923, x1 = 0.2461 | 44.3 | 27.4 | 18.2 | 12.72 | 9.42
x2 = 0.493, x1 = 0.1478 | 32.9 | 21.3 | 14.71 | 10.66 | 8.1
x2 = 0.4934, x1 = 0.0493 | 22.1 | 15.2 | 10.99 | 8.33 | 6.54
x2 = 0.5887, x1 = 0.3532 | 69.7 | 41.6 | 26.2 | 17.9 | 12.88
x2 = 0.5893, x1 = 0.275 | 60 | 37.1 | 23.5 | 16.3 | 11.86
x2 = 0.5898, x1 = 0.1966 | 49.1 | 30.6 | 20.7 | 14.67 | 10.75
x2 = 0.5903, x1 = 0.118 | 39.4 | 25.6 | 17.7 | 12.8 | 9.64
x2 = 0.5909, x1 = 0.0394 | 29.3 | 20 | 14.32 | 10.68 | 8.29
x2 = 0.6861, x1 = 0.2646 | 74.6 | 45.2 | 28.8 | 19.8 | 14.34
x2 = 0.6866, x1 = 0.2059 | 66.4 | 41 | 26.5 | 18.5 | 13.45
x2 = 0.687, x1 = 0.1472 | 57.5 | 35.8 | 24.1 | 17.1 | 12.65
x2 = 0.6874, x1 = 0.0884 | 47.3 | 30.3 | 20.9 | 15.08 | 11.36
x2 = 0.6877, x1 = 0.0295 | 40.3 | 26.6 | 18.8 | 13.79 | 10.55
x2 = 0.7831, x1 = 0.1762 | 84.7 | 51.6 | 32.9 | 22.7 | 16.5
x2 = 0.7836, x1 = 0.1371 | 78.6 | 48.6 | 31.5 | 22 | 16.01
x2 = 0.7839, x1 = 0.0979 | 72.2 | 44.8 | 29.8 | 20.9 | 15.35
x2 = 0.7842, x1 = 0.0588 | 65.6 | 41.8 | 28.1 | 20 | 14.73
x2 = 0.7845, x1 = 0.0196 | 56.4 | 36.7 | 25 | 18 | 13.44
x2 = 0.8801, x1 = 0.0879 | 102 | 62.1 | 40.3 | 27.1 | 19.5
x2 = 0.8804, x1 = 0.0684 | 99.2 | 60.7 | 39.7 | 26.8 | 19.3
x2 = 0.8805, x1 = 0.0294 | 90.7 | 56.4 | 37.2 | 25.5 | 18.5
x2 = 0.8806, x1 = 0.0098 | 80.9 | 50.9 | 33.8 | 23.7 | 17.3
x2 = 0.8806, x1 = 0.0488 | 94.5 | 58.3 | 38.5 | 26.1 | 18.9

CCC1COC(=O)O1 (stereo unspecified) + O=S(=O)([N-]S(=O)(=O)C(F)(F)F)C(F)(F)F.[Li+] + COC(=O)OC
298.15 K, 100 kPa
Settings | viscosity [mPa·s]
x2 = 0.333, x3 = 0 | 323
x2 = 0.333, x3 = 0.3335 | 157
x2 = 0.333, x3 = 0.5002 | 93.7

CCC[N+]1(C)CCCC1.O=S(=O)([N-]S(=O)(=O)C(F)(F)F)C(F)(F)F + CC#N
electrical conductivity [S/m], 101 kPa, frequency 0.0005 MHz
Settings | 278.15 K | 288.15 K | 298.15 K | 308.15 K | 318.15 K | 328.15 K
x1 = 0.03242 | 2.26 | 2.44 | 2.63 | 2.78 | 2.91 | 3.13
x1 = 0.09134 | 2.76 | 3.03 | 3.31 | 3.54 | 3.77 | 3.92
x1 = 0.2317 | 2.01 | 2.35 | 2.69 | 2.97 | 3.28 | 3.53

viscosity [mPa·s], 101 kPa
Settings | 278.15 K | 288.15 K | 298.15 K | 308.15 K | 318.15 K | 328.15 K | 338.15 K | 348.15 K | 358.15 K
x1 = 0.03242 | 0.649 | 0.581 | 0.516 | 0.46 | 0.405 | – | – | – | –
x1 = 0.09134 | 1.145 | 0.993 | 0.877 | 0.797 | 0.706 | 0.621 | – | – | –
x1 = 0.2317 | 3.57 | 2.91 | 2.44 | 2.079 | 1.798 | 1.592 | – | – | –
x1 = 1 | 163.6 | 96.2 | 60.6 | 40.8 | 28.9 | 21.3 | 16.29 | 12.82 | 10.34

CC[n+]1ccn(C)c1.N#C[N-]C#N + CCCC[N+](C)(CCCC)CCCC.N#C[N-]C#N
101 kPa, x1 = 1
Settings | viscosity [mPa·s]
303.15 K | 12.97
323.15 K | 8.28
343.15 K | 5.49
353.15 K | 4.63

O + CCCCCCCCCCCCCCCC[n+]1ccccc1.O=C([O-])C(O)c1ccccc1 + CC(C)[C@H](N)C(=O)O
101 kPa, x2 = 0, x3 = 0
Settings | electrical conductivity [S/m]
293.15 K | 0.00012
298.15 K | 0.00015
303.15 K | 0.00016
308.15 K | 0.00017
313.15 K | 0.00019
